Assays:
[1] = biological target: T1, Solute carrier family 22 member 1 (Rattus norvegicus, UniProt Q63089); experiment: TP_TRANSPORTER: inhibition of TEA uptake (TEA: 500 uM, Guanidine: 5000 uM) in OCT1A expressing Xenopus laevis oocytes; assay type: functional, cell-based; settings: oocyte
T1 sequence (Q63089 whole entry): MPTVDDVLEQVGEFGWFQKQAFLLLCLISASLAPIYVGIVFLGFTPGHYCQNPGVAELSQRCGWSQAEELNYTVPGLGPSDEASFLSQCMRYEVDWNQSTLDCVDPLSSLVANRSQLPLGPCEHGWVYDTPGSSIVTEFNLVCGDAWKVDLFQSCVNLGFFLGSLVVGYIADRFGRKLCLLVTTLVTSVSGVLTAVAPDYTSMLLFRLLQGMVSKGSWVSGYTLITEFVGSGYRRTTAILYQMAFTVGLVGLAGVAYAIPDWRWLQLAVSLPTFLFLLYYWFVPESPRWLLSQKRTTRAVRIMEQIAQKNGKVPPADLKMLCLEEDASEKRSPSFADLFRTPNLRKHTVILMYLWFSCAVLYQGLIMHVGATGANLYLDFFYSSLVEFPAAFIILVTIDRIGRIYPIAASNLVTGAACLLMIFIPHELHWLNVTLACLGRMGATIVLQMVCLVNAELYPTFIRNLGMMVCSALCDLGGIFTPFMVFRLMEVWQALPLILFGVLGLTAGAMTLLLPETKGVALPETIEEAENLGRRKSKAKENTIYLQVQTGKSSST

[2] = biological target: T1, Solute carrier family 22 member 1; experiment: TP_TRANSPORTER: inhibition of TEA uptake (TEA: 500 uM, Procainamide: 5000 uM) in OCT1A expressing Xenopus laevis oocytes; assay type: functional, cell-based; settings: oocyte
[3] = biological target: T1, Solute carrier family 22 member 1; experiment: TP_TRANSPORTER: inhibition of TEA uptake (TEA: 500 uM, PAH: 5000 uM) in OCT1A expressing Xenopus laevis oocytes; assay type: functional, cell-based; settings: oocyte
[4] = biological target: T1, Solute carrier family 22 member 1; experiment: TP_TRANSPORTER: inhibition of TEA uptake (basolateral to cell) (TEA: 500 uM, NMN: 5000 uM) in OCT1A expressing Xenopus laevis oocytes; assay type: functional, cell-based; settings: oocyte
[5] = substrate: CC[N+](CC)(CC)CC; experiment: cells, lysate or membranes named

**Q.** With `N=C(N)N` [GUANIDINE] as the molecule, how does the Activity [1] read?
**A.** inhibitor [+]

**Q.** Which Activity [2] does the source give for `CCN(CC)CCNC(=O)c1ccc(N)cc1` [PROCAINAMIDE] here?
**A.** inhibitor [+]

**Q.** With `Nc1ccc(C(=O)NCC(=O)O)cc1` [AMINOHIPPURIC ACID] as the molecule, how does the Activity [3] read?
**A.** inhibitor [+]

**Q.** How did the Activity [4] turn out when `CNC(=O)c1cccnc1` [NICOTINYL METHYLAMIDE] was run?
**A.** inhibitor [+]

B1: Solute carrier family 22 member 1 (Rattus norvegicus) (protein)
chain: T1 sequence (Q63089 whole entry)
**Q.** How did the Km [5] turn out when B1 was run?
**A.** 42 µM

Source: ChEMBL document CHEMBL2073935, “Cloning and functional characterization of a rat renal organic cation transporter isoform (rOCT1A)” (J Biol Chem, 1997)
